From patent publication US12691124B2, “Methods of controlling and improving brain health” (ICAHN SCHOOL OF MEDICINE AT MOUNT SINAI, priority 2019, dated 2026) come the findings set out here.

Each structure is given as a SMILES string. “Also recorded” adds a separate entry of the source.

The test system of one assay is CK-p25 mice. The experiment in a line: p25 (CK-p25) mouse model of Alzheimer's disease. It counts as in vivo. Conditions: 30 mg/kg i.p. daily. On the procedure: Cdk^5tetO/+; Camk^2atTa/+ model of Alzheimer's disease uses the Camk2a promoter-driven tetracycline-controlled transactivator system (tTA) to overexpress human p25 fused to GFP in forebrain projection neurons after the removal of doxycycline from the diet. To avoid potential developmental effects of p25 expression, all mice were conceived and raised in the presence of doxycycline until 6-8 weeks of age.
Immunostaining. Mice were anesthetized with ketamine (120 mg/kg) and xylazine (24 mg/kg) and perfused transcardially with 10 ml PBS and 40 ml 4% paraformaldehyde (Electron Microscopy Sciences). Fixed brains were removed and dehydrated in 5%, 15% and 30% sucrose in PBS. Following dehydration, brains were frozen in Neg-50 (Thermo Scientific) on dry ice and stored at −80° C. until further processing. Brains were cut using a cryostat and 25-μm sections were mounted on Superfrost Plus microscope slides (Fisher Scientific). Slides were stored at −80° C. until staining. Slides were washed with PBS, permeabilized with PBS+0.2% Triton X-100 (PBST) and blocked with 2% normal goat serum in PBST for one hour at room temperature. Slides were incubated with primary antibodies (IBA1, 1:500, 019-19741, Waco; NeuN) in 2% normal goat serum in PBST overnight at 4° C. Slides were washed in PBST and incubated in Alexa Fluor-conjugated secondary antibodies (Alexa Fluor 488-, 546-, and 568- and 647-labeled goat anti-mouse, goat anti-rat, goat anti-chicken, goat anti-rabbit or donkey anti-goat IgGs (H+L); 1:500, Thermo Scientific) in 2% normal goat serum in PBST for 1 h at RT. Slides were washed and cover-slipped using Prolong Gold anti-fade with DAPI (Invitrogen) and dried overnight. Imaging was performed using a Zeiss LSM 780 Confocal Microscope (Zeiss, Oberkochen, DE). For z-stack images, 20-μm z-stack confocal images were acquired at 2-μm intervals, with 40×/1.3 oil objective at 0.6 or 1× zoom. For single plane images, 4.6 μm images were acquired at 20×/0.8 or 40×/1.3 objectives 0.6 or 1× zoom. Image processing was performed using Zen 2011 software (Zeiss).
(§1) Immunoblotting. Mice were anesthetized with CO2 followed by decapitation, and the region of interest was rapidly dissected and frozen in liquid nitrogen and stored at −80° C. until further processing. Samples were sonicated at 4° C. in 1% SDS solution supplemented with protease, Trichostatin A (500 ng/ml) and PhosStop phosphatase inhibitor (Roche, Switzerland), and boiled for ten minutes. The protein concentration was determined using a BCA protein assay kit (ThermoFisherScientific, USA) according to the manufacturer's instructions. Protein samples were diluted in equal volume of 2×LDS sample buffer (Invitrogen) and supplemented with DTT to a final concentration of 200 mM (Sigma).
Therefore to test the therapeutic effect of IBET858, p25 was overexpressed for two weeks in adult mice to initiate microgliosis and gene expression deficits before administration of daily IBET858 (30 mg/kg, i.p.) treatment for five weeks (FIG. 6A).
Gene expression levels for Casp3 are unaffected by 5 week IBET858 treatment in vivo. n=3, unpaired two-tailed t-test. […] To generate the p25 neurodegenerative mouse model, tetOCDK5R1/GFP were bred to CamK2a-tTA mice (“CK-p25”). Transgene overexpression was induced at 6 weeks of age by removing doxycycline from the diet. After two weeks, mice were daily injected with IBET858 (30 mg/kg, i.p.) or vehicle (FIG. 24C). Gene expression and protein levels of GFP reflecting transgene expression are unchanged.

The next assay deals with mTOR. The experiment in a line: mTOR signaling in neurons (p70-S6k Thr389 phosphorylation). It counts as cell-based, mouse. On the procedure:
as §1
Additionally, there is significant agreement between genes sensitive to BET inhibition and mTOR inhibition.

Another assay has as its system primary cortical neurons. Kind of assay: Polar metabolite mass spectrometry in primary cortical neurons. It counts as cell-based, mouse. On the procedure:
Mass Spectrometry. Cell culture plates (2e6 cells per well n=7-8 per group) were washed with 75 mM Ammonium bicarbonate, pH 7.4, warmed to 37 degrees. Plates were quenched on liquid nitrogen for 10 seconds and then placed on dry ice. 1 ml of 70% Ethanol in MS-grade water was warmed to 75 degrees and added to each well. Plates were incubated in a 75 degree water bath for 3 minutes, shaking gently every minute. After 3 minutes, plates were placed on dry ice and once cooled, supernatants were lyophilized using the speed vacuum and stored at −80 degrees. Samples were shipped on dry ice to Cellzome who processed the samples for mass spectrometry and performed the initial analysis annotating metabolites. A semi-quantitative approach was used which determines the metabolite levels relative to a control rather than absolute concentrations. All detected ions were used for statistical analysis regardless of how many samples they were detected. This allows for the identification of low-abundant metabolites that may be present in only a subset of samples.
If IBET858 is indeed decreasing metabolism as indicated, comprehensive metabolic changes after BET inhibition should be observed. Therefore, an unbiased analysis of polar metabolites via mass spectrometry was employed (FIGS. 12A-12C). Accordingly, the levels of 100-150 unique metabolites are changed by chronic BET inhibition in primary cortical neurons.

On to `CC(=O)N1c2ccc(-c3ccc(CN4CCCCC4)cc3)cc2[C@H](Nc2ccccc2)CC1C` (stereo in doubt) [IBET858], for which the “hippocampal inflammatory genes induced by P25 overexpression” value with CK-p25 mice (five weeks) was “suppressed”. In addition, the “contextual and cued recall (freezing behavior)” value in the assay with CK-p25 mice (five weeks, fear conditioning) is “indistinguishable from controls”. In addition, in the assay on CK-p25 mice (five weeks, untreated P25 42+/−10.7%), the “hippocampal Psd95 protein level compared to wild type controls” value is recorded as 106+/−11.9%. Further, the “hippocampal NeuN protein level compared to wild type controls” value in the assay on CK-p25 mice (five weeks, untreated P25 49+/−9.3%) is given as 105+/−9.8%. The “brain atrophy (loss)” value with CK-p25 mice (five weeks, untreated p25 27%) amounted to 17%. In addition, the “number of microglia in the hippocampus” value in the assay on CK-p25 mice (five weeks, untreated p25 713.9+/−106) is 332.9+/−12.6 Iba1+ cells per mm^2. The “neuronal density in the dentate gyrus” value in the assay on CK-p25 mice (five weeks, untreated p25 2254+/−223.8) is 7880+/−587 NeuN+ cells per mm2. Further, in the assay on CK-p25 mice (western blot / GFP), the “expression of the p25 transgene” value is recorded as “does not affect; also recorded: unchanged”. In the assay with CK-p25 mice (hippocampus), the “genes induced by P25 overexpression that are significantly suppressed” value amounted to 365 genes and the “genes suppressed by P25 overexpression that are significantly induced” value came out at 373 genes. Further, in the assay with mTOR, the “mTOR activity, phosphorylation of p70-S6k at Thr389” value is given as “significant, time-dependent decrease” and the mTOR protein levels entry is reported as “does not affect”. Moreover, in the assay with primary cortical neurons (1 week IBET858), the “enrichment of decreased metabolites, Arginine/Proline metabolism (OR)” value came to 26.8; the “enrichment of decreased metabolites, Glutamate metabolism (OR)” value is reported as 24.4; the “enrichment of decreased metabolites, Tyrosine metabolism (OR)” value is reported as 30.33; the “enrichment of decreased metabolites, glycolysis (OR)” value was found to be 48.8. In addition, in the assay on primary cortical neurons (1 week IBET858), the “enrichment of decreased metabolites, pentose phosphate pathway (OR)” value came to 42 and the “enrichment of increased metabolites, aspartate metabolism pathway (OR)” value worked out at 23.5. Also, the “amino acids significantly decreased” value in the assay with primary cortical neurons (1 week IBET858, 13/20) is listed as 65%. The unique metabolites changed with primary cortical neurons (chronic BET inhibition (1 week)) is 100-150 metabolites.
